What was measured:
Format in all cases: cell-based
MDA-MB-453 cells [1] = assay: Inhibition of proliferation of MDA-MB-453 cells (CCK-8 or CTG, 7-10 days); conditions: Homo sapiens, co-incubation 7-10 days, CCK-8 or CTG, read-out: IC50 values against MDA-MB-453 cells
Procedure: Triple negative breast cancer MDA-MB-453 cells in logarithmic growth stage were inoculated into a 96-well plate at a concentration of 4×10^3 cells/well, and then incubated in an incubator at 37° C., 5% CO2, and saturated humidity for 24 h or 48 h. To the negative control well, was added RPMI 1640 cell medium containing 10% fetal bovine serum in the same volume as the drug. After cultured for 24 h or 48 h, to the 96-well plate, were added AR PROTACs compounds 162, 177, 230, 259, 279, 281, 282, 325, 357, 400, ARV-110, ARV-766 and AR inhibitor HC-1119, respectively. The concentrations of compounds 177, 230, 259, 279, 281, 282, 325, 357, 400, ARV-110, and ARV-766 are 0 μM, 0.002 μM, 0.005 μM, 0.014 μM, 0.041 μM, 0.123 μM, 0.370 μM, 1.111 μM, 3.333 μM or 10 μM; while the concentrations of HC-1119 are 0 μM, 1.23 μM, 3.70 μM, 11.11 μM, 33.33 μM or 100 μM.
(§1) After addition of the drugs and co-incubation for 7-10 days, 10 μL of CCK-8 was added to each well, and then the plate was further cultured for 2 h. The absorbance value (OD) of each well was measured using a microplate reader at a wavelength of 450 nm. The survival rate was calculated using Prism software, the relative survival rate=(OD value of drug well/OD value of control well)×100%. Alternatively, 100 μL of medium was removed from each well, and then 50 μL of CTG was added. The plate was shaken in the dark for 2 min, allowed to stand for 10 min, and then measured using a microplate reader in Luminescence mode. Prism software was used to calculate the survival rate, the relative survival rate=(the RLU value of drug well/the RLU value of control well)×100%.

MDA-MB-453 = assay: Antiproliferation, CellTiter-Glo, 5 days, MDA-MB-453; conditions: Homo sapiens, 120 h, MDA-MB-453, AR+ TNBC
Procedure: (§2) For MDA-MB-453, MFM-223, SUM159PT, MDA-MB-468, and HCC1937, 4,000, 3,000, 1,000, 3,000, and 3,000 cells were plated per well in 96-well microplates (Corning Inc), respectively. Cells were treated with serial dilutions of tested compounds with the maximum working concentration of 10 μM. Cell survival was measured 5 days later using a CellTiter-Glo luminescent cell viability assay kit (Promega Corporation). Luminescence was recorded by FLUOstar Omega microplate reader (BMG Labtech). Half maximal inhibitory concentration (IC50) was determined with GraphPad Prism using baseline correction (by normalizing to dimethyl sulfoxide (DMSO) control)

SUM159PT = assay: Antiproliferation, CellTiter-Glo, 5 days, SUM159PT; conditions: Homo sapiens, SUM-159-PT, 120 h, AR+ TNBC
Procedure: as §2, with “Cells” for “For MDA-MB-453, MFM-223, SUM159PT, MDA-MB-468, and HCC1937, 4,000, 3,000, 1,000, 3,000, and 3,000 cells were plated per well in 96-well microplates (Corning Inc), respectively. Cells”

HCC1937 = assay: Antiproliferation, CellTiter-Glo, 5 days, HCC1937; conditions: Homo sapiens, 120 h, HCC1937, AR− TNBC
Procedure: as §2

MDA-MB-453 cells [2] = assay: Combination with PI3K inhibitor Duvelisib, proliferation of MDA-MB-453 cells, Combination Index; conditions: molar ratio to Duvelisib 1:30-1:1.111, 7-10 days
Procedure: (§3) Triple negative breast cancer MDA-MB-453 cells in logarithmic growth stage were inoculated into a 96-well plate at a concentration of 4×10^3 cells/well, and then incubated in an incubator at 37° C., 5% CO2, and saturated humidity for 24 h. To the negative control wells, were added RPMI 1640 cell culture medium containing 10% fetal bovine serum in the same volume as the drug. After cultured for 24 h, to the 96-well plate, were sequentially added AR PROTACs compounds 279, 281, 282, ARV-110 and PI3K inhibitor Duvelisib, respectively.
as §1, with “adding” for “addition of”, “co-incubating” for “co-incubation”

MDA-MB-453 cells [3] = assay: Combination with PI3K inhibitor Idelalisib, proliferation of MDA-MB-453 cells, Combination Index; conditions: molar ratio to Idelalisib 1:270-1:3.333, 7-10 days
Procedure: as §3, with “ARV-110, ARV-766” for “ARV-110”, “Idelalisib,” for “Duvelisib,”
as §1, with “adding” for “addition of”, “co-incubating” for “co-incubation”

| SMILES | IC50 (MDA-MB-453 cells [1]) | IC50 (MDA-MB-453) | IC50 (SUM159PT) | IC50 (HCC1937) | effect of the combination with Duvelisib on inhibiting proliferation (CI<1 = synergistic) (MDA-MB-453 cells [2]) | effect of the combination with Idelalisib on inhibiting proliferation (CI<1 = synergistic) (MDA-MB-453 cells [3]) |
| --- | --- | --- | --- | --- | --- | --- |
| N#Cc1ccc(O[C@H]2CC[C@H](NC(=O)c3cnc(N4CCC(CN5CCC6(CC5)CN(c5ccc7c(c5)C(=O)N(C5CCC(=O)NC5=O)C7=O)C6)CC4)nn3)CC2)cc1Cl (stereo partly drawn) [Compound 279] | ≤ 2 µM | 0.14 µM | 0.44 µM | > 10 µM | synergistic effect | synergistic effect |
| N#Cc1ccc(O[C@H]2CC[C@H](NC(=O)c3ccc(N4CCC(CN5CCN(c6cc7c(cc6F)C(=O)N(C6CCC(=O)NC6=O)C7=O)CC5)CC4)nn3)CC2)cc1Cl (stereo partly drawn) [ARV-110, reference compound] | ≤ 2 µM | 1.4 µM | 1.6 µM | > 10 µM | synergistic effect | synergistic effect |
